{"source": "patent US20160318987A1", "about": "(MEDIMMUNE LIMITED, priority 2013, published 2016)", "key": {"hGIP-R": {"target": "T1, hGIP-R (Homo sapiens, UniProt P48546)", "T1 construct": "expressed in transfected cells", "T1 sequence (P48546 22-466)": "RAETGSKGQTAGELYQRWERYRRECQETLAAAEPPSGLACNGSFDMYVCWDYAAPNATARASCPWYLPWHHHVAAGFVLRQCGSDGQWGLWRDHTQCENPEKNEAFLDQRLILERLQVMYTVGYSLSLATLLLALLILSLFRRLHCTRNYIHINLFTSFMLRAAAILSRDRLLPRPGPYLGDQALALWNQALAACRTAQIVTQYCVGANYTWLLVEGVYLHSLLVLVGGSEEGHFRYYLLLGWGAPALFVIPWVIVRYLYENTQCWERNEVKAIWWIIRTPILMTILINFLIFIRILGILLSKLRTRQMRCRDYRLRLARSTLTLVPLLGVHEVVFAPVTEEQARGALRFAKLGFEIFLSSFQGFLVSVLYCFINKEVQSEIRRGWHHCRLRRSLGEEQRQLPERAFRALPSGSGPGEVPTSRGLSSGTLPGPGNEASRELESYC", "assay": "cAMP functional assay, cells expressing human GIP receptor (primary assay)", "type": "cell-based", "details": "n = 2", "method": "(§1) The biological activities/receptor potencies of the synthetic GLP-1 peptides described herein are suitably tested for biological activity, e.g., stimulation of one or more cellular receptor responses. Stable cell lines expressing human, mouse, rat, or dog GLP-1 receptor (GLP-1R), glucagon receptor (GCGR) or glucose-dependent insulinotropic peptide (gastric inhibitory polypeptide) receptor (GIPR) are generated in HEK293 cells or CHO cells by standard methods.\n(§2) cAMP assays were performed using “assay buffer”: Assay Buffer: 0.1% BSA (Sigma #A3059) in HBSS (Sigma #H8264) with 25 mM HEPES, pH 7.4 and containing 0.5 mM IBMX (Sigma #17018).\n(§3) Low protein binding 384-well plates (Greiner #781280) are used to perform eleven 1 in 5 serial dilutions of test samples which are made in assay buffer. All sample dilutions are made in duplicate.\n(§4) A frozen cryo-vial of cells expressing the receptor of interest is thawed rapidly in a water-bath, transferred to pre-warmed assay buffer and spun at 240× g for 5 minutes. Cells are re-suspended in assay buffer at a batch-dependent optimized concentration (e.g. hGCGR cells at 2×10^5 cells/ml, hGLP-1R and hGIPR cells at 1×10^5 cells /ml).\n(§5) From the dilution plate, a 5 μL replica is stamped onto a black shallow-well u-bottom 384-well plate (Corning #3676). To this, 5 μL cell suspension is added and the plates incubated at room temperature for 30 minutes.\n(§6) cAMP levels are measured using a commercially available cAMP dynamic 2 HTRF kit (Cisbio, Cat #62AM4PEJ), following the two step protocol as per manufacturer's recommendations. In brief; anti-cAMP cryptate (donor fluorophore) and cAMP-d2 (acceptor fluorophore) are made up separately by diluting each 1/20 in conjugate & lysis buffer provided in the kit. 5 μL anti-cAMP cryptate is added to all wells of the assay plate, and 5 μL cAMP-d2 is added to all wells except non-specific binding (NSB) wells, to which conjugate and lysis buffer are added. Plates are incubated at room temperature for one hour and then read on an Envision (Perkin Elmer) using excitation wavelength of 320 nm and emission wavelengths of 620 nm & 665 nm. EC50 values of the synthetic peptides determined in cAMP assays are then determined."}, "hGLP-1R": {"target": "T2, hGLP-1R (Homo sapiens, UniProt P43220)", "T2 construct": "expressed in transfected cells", "T2 sequence (P43220 24-463)": "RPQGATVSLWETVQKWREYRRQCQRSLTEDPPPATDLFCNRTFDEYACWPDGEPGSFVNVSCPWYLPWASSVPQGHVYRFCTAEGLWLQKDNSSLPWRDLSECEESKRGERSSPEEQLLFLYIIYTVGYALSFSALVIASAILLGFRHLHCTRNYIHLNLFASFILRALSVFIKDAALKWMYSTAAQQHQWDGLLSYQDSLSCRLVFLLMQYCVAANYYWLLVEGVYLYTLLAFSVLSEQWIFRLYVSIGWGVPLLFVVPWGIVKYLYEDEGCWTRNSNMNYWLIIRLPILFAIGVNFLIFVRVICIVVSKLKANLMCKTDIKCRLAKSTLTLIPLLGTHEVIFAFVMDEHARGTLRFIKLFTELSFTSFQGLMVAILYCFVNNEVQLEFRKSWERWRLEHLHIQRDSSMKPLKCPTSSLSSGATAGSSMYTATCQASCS", "assay": "cAMP functional assay, cells expressing human GLP-1 receptor (primary assay)", "type": "cell-based", "details": "n = 2", "method": "as §1, §2, §3, §4, §5, §6"}}, "note": "Read-outs that look alike come from different tables or passages of the source. Where a SMILES comes first, the peptide text is derived from it. Where no end group is shown, it is not given here. Side-chain parts run from the residue outwards. [ ]: non-standard residue; d: D form. αMeF = C[C@](N)(Cc1ccccc1)C(=O)O; Nle = CCCC[C@H](N)C(=O)O; Aib = CC(C)(N)C(=O)O; Mal = maleimide"}
{"compound": "CC[C@H](C)[C@H](NC(=O)C(C)(C)NC(=O)[C@H](CCC(=O)O)NC(=O)[C@H](CCCCN)NC(=O)[C@H](C)NC(=O)[C@H](C)NC(=O)[C@H](CCC(N)=O)NC(=O)CNC(=O)[C@H](CCC(=O)O)NC(=O)[C@H](CC(C)C)NC(=O)C(C)(C)NC(=O)[C@H](CO)NC(=O)[C@H](CO)NC(=O)[C@@H](NC(=O)[C@H](CC(=O)O)NC(=O)[C@H](CO)NC(=O)[C@@H](NC(=O)C(C)(C)NC(=O)[C@@H](NC(=O)CNC(=O)[C@H](CCC(=O)O)NC(=O)C(C)(C)NC(=O)[C@@H](N)Cc1c[nH]cn1)[C@@H](C)O)[C@@H](C)O)C(C)C)C(=O)N[C@@H](C)C(=O)NC(C)(C)C(=O)N[C@@H](CC(C)C)C(=O)N[C@H](C(=O)N[C@@H](CCCCN)C(=O)NCC(=O)N[C@@H](CCCNC(=N)N)C(N)=O)C(C)C", "note": "[SEQ ID NO: 16, H-(Aib)^2-EGT^5-(Aib)^6-TSDV^10 SS-(Aib)^13-LE^15 GQAAK^20 E-(Aib)^22-IA-(Aib)^25 LVKGR^30] (H-H[Aib]EGT[Aib]TSDVSS[Aib]LEGQAAKE[Aib]IA[Aib]LVKGR-NH2)", "values": [{"measurement": "EC50", "setting": "hGIP-R", "result": 102, "unit": "nM"}, {"measurement": "EC50", "setting": "hGLP-1R", "result": 102, "unit": "nM"}]}
{"compound": "CCCC[C@H](NC(=O)[C@H](C)NC(=O)[C@@H](NC(=O)[C@H](CCCC)NC(=O)[C@H](CCC(=O)O)NC(=O)[C@H](CCCCN)NC(=O)[C@H](C)NC(=O)[C@H](C)NC(=O)[C@H](CCC(N)=O)NC(=O)CNC(=O)[C@H](CCC(=O)O)NC(=O)[C@H](CC(C)C)NC(=O)[C@H](CCCC)NC(=O)[C@H](CO)NC(=O)[C@H](CO)NC(=O)[C@@H](NC(=O)[C@H](CC(=O)O)NC(=O)[C@H](CO)NC(=O)[C@@H](NC(=O)[C@H](CCCC)NC(=O)[C@@H](NC(=O)CNC(=O)[C@H](CCC(=O)O)NC(=O)C(C)(C)NC(=O)[C@@H](N)Cc1c[nH]cn1)[C@@H](C)O)[C@@H](C)O)C(C)C)[C@@H](C)CC)C(=O)N[C@@H](CC(C)C)C(=O)N[C@H](C(=O)N[C@@H](CCCCN)C(=O)NCC(=O)N[C@@H](CCCNC(=N)N)C(N)=O)C(C)C", "note": "[SEQ ID NO: 17, H-(Aib)^2-EGT^5-(Nle)^6-TSDV^10 SS-(Nle)^13-LE^15 GQAAK^20 E-(Nle)^22-IA-(Nle)^25 LVKGR^30] (H-H[Aib]EGT[Nle]TSDVSS[Nle]LEGQAAKE[Nle]IA[Nle]LVKGR-NH2)", "values": [{"measurement": "EC50", "setting": "hGIP-R", "result": 102, "unit": "nM"}, {"measurement": "EC50", "setting": "hGLP-1R", "result": 3.48, "unit": "nM"}]}
{"compound": "CC[C@H](C)[C@H](NC(=O)[C@H](Cc1ccccc1)NC(=O)[C@H](CCC(=O)O)NC(=O)[C@H](CCCCN)NC(=O)[C@H](C)NC(=O)[C@H](C)NC(=O)[C@H](CCC(N)=O)NC(=O)CNC(=O)[C@H](CCC(=O)O)NC(=O)[C@H](CC(C)C)NC(=O)[C@H](Cc1ccccc1)NC(=O)[C@H](CO)NC(=O)[C@H](CO)NC(=O)[C@@H](NC(=O)[C@H](CC(=O)O)NC(=O)[C@H](CO)NC(=O)[C@@H](NC(=O)[C@H](Cc1ccccc1)NC(=O)[C@@H](NC(=O)CNC(=O)[C@H](CCC(=O)O)NC(=O)C(C)(C)NC(=O)[C@@H](N)Cc1c[nH]cn1)[C@@H](C)O)[C@@H](C)O)C(C)C)C(=O)N[C@@H](C)C(=O)N[C@@H](Cc1ccccc1)C(=O)N[C@@H](CC(C)C)C(=O)N[C@H](C(=O)N[C@@H](CCCCN)C(=O)NCC(=O)N[C@@H](CCCNC(=N)N)C(N)=O)C(C)C", "note": "[SEQ ID NO: 18, H-(Aib)^2-EGT^5-FTSDV^10 SS-(F)^13-LE^15 GQAAK^20 EFIA-(F)^25 LVKGR^30] (H-H[Aib]EGTFTSDVSSFLEGQAAKEFIAFLVKGR-NH2)", "values": [{"measurement": "EC50", "setting": "hGIP-R", "result": 102, "unit": "nM"}, {"measurement": "EC50", "setting": "hGLP-1R", "result": 0.0163, "unit": "nM"}]}
{"compound": "CC[C@H](C)[C@H](NC(=O)[C@](C)(Cc1ccccc1)NC(=O)[C@H](CCC(=O)O)NC(=O)[C@H](CCCCN)NC(=O)[C@H](C)NC(=O)[C@H](C)NC(=O)[C@H](CCC(N)=O)NC(=O)CNC(=O)[C@H](CCC(=O)O)NC(=O)[C@H](CC(C)C)NC(=O)[C@](C)(Cc1ccccc1)NC(=O)[C@H](CO)NC(=O)[C@H](CO)NC(=O)[C@@H](NC(=O)[C@H](CC(=O)O)NC(=O)[C@H](CO)NC(=O)[C@@H](NC(=O)[C@](C)(Cc1ccccc1)NC(=O)[C@@H](NC(=O)CNC(=O)[C@H](CCC(=O)O)NC(=O)C(C)(C)NC(=O)[C@@H](N)Cc1c[nH]cn1)[C@@H](C)O)[C@@H](C)O)C(C)C)C(=O)N[C@@H](C)C(=O)N[C@@](C)(Cc1ccccc1)C(=O)N[C@@H](CC(C)C)C(=O)N[C@H](C(=O)N[C@@H](CCCCN)C(=O)NCC(=O)N[C@@H](CCCNC(=N)N)C(N)=O)C(C)C", "note": "[SEQ ID NO: 19, H-(Aib)^2-EGT^5-(α-MeF)^6-TSDV^10 SS-(α-MeF)^13-LE^15 GQAAK^20 E-(α-MeF)^22-IA-(α-MeF)^25 LVKGR^30] (H-H[Aib]EGT[αMeF]TSDVSS[αMeF]LEGQAAKE[αMeF]IA[αMeF]LVKGR-NH2)", "values": [{"measurement": "EC50", "setting": "hGIP-R", "result": 102, "unit": "nM"}, {"measurement": "EC50", "setting": "hGLP-1R", "result": 0.026, "unit": "nM"}]}
{"compound": "CC[C@H](C)[C@H](NC(=O)[C@H](Cc1ccccc1)NC(=O)[C@H](CCC(=O)O)NC(=O)[C@H](CCCCN)NC(=O)[C@H](C)NC(=O)[C@H](C)NC(=O)[C@H](CCC(N)=O)NC(=O)CNC(=O)[C@H](CCC(=O)O)NC(=O)[C@H](CC(C)C)NC(=O)[C@H](Cc1ccc(O)cc1)NC(=O)[C@H](CO)NC(=O)[C@H](CO)NC(=O)[C@@H](NC(=O)[C@H](CC(=O)O)NC(=O)[C@H](CO)NC(=O)[C@@H](NC(=O)[C@H](Cc1ccccc1)NC(=O)[C@H](CO)NC(=O)CNC(=O)[C@H](CCC(=O)O)NC(=O)C(C)(C)NC(=O)[C@@H](N)Cc1c[nH]cn1)[C@@H](C)O)C(C)C)C(=O)N[C@@H](C)C(=O)N[C@@H](Cc1c[nH]c2ccccc12)C(=O)N[C@@H](CC(C)C)C(=O)N[C@H](C(=O)N[C@@H](CCCCN)C(=O)NCC(=O)N[C@@H](CCCNC(=N)N)C(N)=O)C(C)C", "note": "[SEQ ID NO: 28, H-(Aib)^2-EG-(S)^5-FTSDV^10 SSYLE^15 GQAAK^20 EFIAW^25 LVKGR^30]", "values": [{"measurement": "EC50", "setting": "hGIP-R", "result": 102, "unit": "nM"}, {"measurement": "EC50", "setting": "hGLP-1R", "result": 0.00951, "unit": "nM"}]}
{"compound": "CC[C@H](C)[C@H](NC(=O)[C@](C)(Cc1ccccc1)NC(=O)[C@H](CCC(=O)O)NC(=O)[C@H](CCCCN)NC(=O)[C@H](C)NC(=O)[C@H](C)NC(=O)[C@H](CCC(N)=O)NC(=O)CNC(=O)[C@H](CCC(=O)O)NC(=O)[C@H](CC(C)C)NC(=O)[C@](C)(Cc1ccccc1)NC(=O)[C@H](CO)NC(=O)[C@H](CO)NC(=O)[C@@H](NC(=O)[C@H](CC(=O)O)NC(=O)[C@H](CO)NC(=O)[C@@H](NC(=O)[C@](C)(Cc1ccccc1)NC(=O)[C@@H](NC(=O)CNC(=O)[C@H](CCC(=O)O)NC(=O)C(C)(C)NC(=O)[C@@H](N)Cc1c[nH]cn1)[C@@H](C)O)[C@@H](C)O)C(C)C)C(=O)N[C@@H](C)C(=O)N[C@@H](Cc1c[nH]c2ccccc12)C(=O)N[C@@H](CC(C)C)C(=O)N[C@H](C(=O)N[C@@H](CCCCN)C(=O)NCC(=O)N[C@@H](CCCNC(=N)N)C(N)=O)C(C)C", "note": "[SEQ ID NO: 29, H-(Aib)^2-EGT^5-(α-MeF)^6-TSDV^10 SS-(α-MeF)^13-LE^15 GQAAK^20 E-(α-MeF)^22-IAW^25 LVKGR^30] (H-H[Aib]EGT[αMeF]TSDVSS[αMeF]LEGQAAKE[αMeF]IAWLVKGR-NH2)", "values": [{"measurement": "EC50", "setting": "hGIP-R", "result": 102, "unit": "nM"}, {"measurement": "EC50", "setting": "hGLP-1R", "result": 0.0126, "unit": "nM"}]}
{"compound": "H-(Aib)^2-EG-(S)^5-(α-MeF)^6-TSDV^10 SS-(α-MeF)^13-LE^15 GQAAK^20 E-(α-MeF)^22-IA-(α-MeF)^25 LVKG-(G)^30-(SSG)3-(Cys-Mal-mPEG)[40 kD] (H[Aib]EGS[αMeF]TSDVSS[αMeF]LEGQAAKE[αMeF]IA[αMeF]LVKGGSSGSSGSSGC([Mal-mPEG 40 kDa]); not fully specified (C-terminus); printed as H-(Aib)^2-EG-(S)^5-(α-MeF)^6-TSDV^10 SS-(α-MeF)^13-LE^15 GQAAK^20 E-(α-MeF)^22-IA-(α-MeF)^25 LVKG-(G)^30-(SSG)3-(Cys-Mal-mPEG)[40 kD]) [SEQ ID NO: 50]", "values": [{"measurement": "EC50", "setting": "hGLP-1R; read-out: Primary assay EC50 (n = 2) hGLP-1R", "result": 0.0278, "unit": "nM"}]}
